Laboratory results as given in US10016515B2, “DMA, a bis-benzimidazole, confers radioprotection to the intestine via Akt/NFκB dual pathway activation” (Jawaharlal Nehru University, priority 2016, dated 2018).

How the values were obtained:
HEK293 cells = assay: Actively proliferating cells by BrdU uptake; type: cell-based, human; settings: 48 h
Procedure: FIG. 5. […] Tissue sections performed 3 days postirradiation (8Gy) with and without 50 mg/kg bw, i.v. DMA pretreatment with the control and DMA treated tissues (A) Images showing spleen, intestine and liver analysis at magnification 40× objective lens. (B) Small intestine, spleen and lung sections from melanoma tumor bearing mice at 40× & 60× objective lens (C) Immunohistochemical analysis of BrdU uptake in spleen and IL6 protein expression in intestine tissues at 100× objective lens magnification. (D) Graphical representation of actively proliferating HEK293 at 48 h and Balb/c intestinal cells by BrdU uptake under each condition (n=3/group from 2 independent experiments).

[1] = system: Akt/NFκB pathway in HEK293, MRC5 and A549 cell lines; assay: Immunoblot analysis in cell lines; type: cell-based, human
Procedure: HEK293, MRC5 and A549 cells were treated as indicated earlier. The cell pellet was resuspended in RIPA buffer and allowed to swell on ice for 30 min. Balb/c intestine tissue and tumor tissues were homogenized in RIPA buffer. Protein concentration was determined using Bradford's Assay (Bangalore Genei). Western blot was performed using standard protocols with primary antibodies against Akt, pAkt (Ser-473), […], mTOR, p70, Bad, PTEN, IKKα/β, p IKKα/β, p53, Bcl2, GAPDH, and NFκB (p65) (Cell Signalling) and horseradish peroxidase-conjugated mouse or rabbit secondary antibody (Abcam). Signals were detected using enhanced chemiluminescence (ECL system, Pierce) on X-ray film.
Cells after treatment were collected by trypsinization and washed twice with ice-cold PBS. Cell pellet was resuspended in five volumes of cytoplasmic extraction buffer (CEB) [10 mM HEPES pH 7.9, 10 mM KCl, 0.1 mM EDTA, 0.3% NP-40 and 1× protease inhibitor cocktail] to the size of cell pellet for 5 min. Protein solution was centrifuged at 3000 rpm for 5 min at 4° C. and supernatant was harvested as cytoplasmic extract.
The cell pellet obtained after extraction of cytoplasmic proteins was resuspended again in CEB without NP-40. It was centrifuged at 3000 rpm for 5 min at 4° C. and supernatant was discarded. Equal volume of nuclear extraction buffer (NEB) [20 mM HEPES pH7.9, 0.4M NaCl, 1 mM EDTA, 25% Glycerol, and 1× protease inhibitor cocktail] was added to nuclear pellet and incubated on ice for 10 min. Supernatant was harvested as nuclear protein extract.

[2] = DMA+Radiation, all three cell lines

COc1ccc(-c2nc3cc(-c4nc5cc(N6CCN(C)CC6)ccc5[nH]4)ccc3[nH]2)cc1OC [DMA, 5-(4-methylpiperazin-1-yl)-2-[2′-(3,4-dimethoxyphenyl)-5′-benzimidazolyl]benzimidazole]
Cells at active S phase (HEK293 cells; HEK293, DMA treated): 30% | S phase cells (HEK293 cells; HEK293, DMA+Radiation (5Gy)): came back to normal | NFκB p65 level ([1]; DMA+Radiation vs control and irradiated): increased level | Level of phosphorylated Akt (Ser-473) ([1]; DMA+Radiation, HEK293, MRC5 and A549): increased | IκBα protein level [1, 2]: decrease | Phosphorylation of IKKα and IKKβ [1, 2]: higher | NFκB p65 in cytoplasm and nucleus ([1]; HEK293 cytoplasmic and nuclear extract, DMA prior to radiation): higher expression | PTEN, mTOR and p70 levels ([1]; all three cell lines): could not address any significant changes | Phosphorylated GSK3β ([1]; prior DMA treatment to radiation, all three cell lines): increase
